The results in this text go back to patent US5990146A, “Benzimidazoles for inhibiting protein tyrosine kinase mediated cellular proliferation” (Warner-Lambert Company, priority 1998, dated 1999).

Where a name gives a salt, the structure may show the parent alone.

Experiment [1] relates to SW-620 cells. The experiment can be described thus: Human Colon Carcinoma Clonogenic Assay. Format: cell-based. The conditions noted are these: Table 3, SW-620, 2 days drug exposure, approximately 2 weeks colony growth, read-out: SW-620 Clonogenic IC50. The procedure:
SW620 cells are seeded at 7×10^5 per well; HCT8 cells are seeded at 5×10^5 per well; HT29 cells are seeded at 4×10^5 cells per well. Serially diluted drugs are prepared at 200 ×the final concentration and 15 μL are added to each of duplicate wells. Cells are incubated with drug for 2 days, rinsed once with 1 mL of trypsin+EDTA, and then trypsinized with the same trypsin solution. […] One milliliter of each of these cell suspensions is added to duplicate wells of 6 well plates previously prepared with 10% serum/growth medium/ 1% agarose plugs. The cells in these plates are incubated for approximately 2 weeks in the incubator and stained with 1 mL per well of 1 mg/mL iodonitrotetrazolium violet stain. The visible colonies are counted with an electronic optical colony counter and the clonogenicity of treated cells calculated in comparison to untreated control cells.

Experiment [2] addresses MAP Kinase Pathway (GST-MEK / GST-MAPK). The experiment can be described thus: Cascade Assay for Inhibitors of the MAP Kinase Pathway (APK Assay). The settings on record: Table 1; 50 μM ATP, 20 minutes. Format: biochemical. The procedure: Cascade Assay for Inhibitors of the MAP Kinase Pathway (APK Assay) Incorporation of ^32 P into myelin basic protein (MBP) is assayed in the presence of a glutathione S-transferase fusion protein containing p44MAP kinase (GST-MAPK) and a glutathione S-transferase fusion protein containing p45MEK (GST-MEK). […] Reactions are stopped after 20 minutes by addition of trichloroacetic acid and filtered through a GF/C filter mat. ^32 P retained on the filter mat is determined using a 1205 betaplate. […] To ascertain whether compounds are inhibiting GST-MEK or GST MAPK, two additional protocols are employed. In the first protocol, compounds are added to tubes containing GST MEK, followed by addition of GST-MAPK, MBP and [γ^32 P]ATP. In the second protocol, compounds are added to tubes containing both GST-MEK and GST-MAPK, followed by MBP and [γ^32 P]ATP. Compounds that show activity in both protocols are scored as […], while compounds showing activity in only the first protocol are scored as MEK inhibitors.

Experiment [3] concerns the target T1, insulin receptor (INSr) (Homo sapiens, UniProt P06213).
T1 construct: An assay using the intracellular kinase domains of insulin receptor (INSr) is performed
Nature of the experiment: Insulin receptor kinase assay. Type of experiment: biochemical. The conditions noted are these: Table 1; as for EGF receptor with 10 mM manganese chloride.

The target in experiment [4] is T2, Human EGF receptor tyrosine kinase (Homo sapiens, UniProt P00533).
T2 construct: Human EGF receptor tyrosine kinase is isolated from A431 human epidermoid carcinoma cells; endogenous in cells; host or cells: A431 human epidermoid carcinoma cells (detergent lysate, fast Q sepharose fractions)
T2 sequence (P00533 25-1210): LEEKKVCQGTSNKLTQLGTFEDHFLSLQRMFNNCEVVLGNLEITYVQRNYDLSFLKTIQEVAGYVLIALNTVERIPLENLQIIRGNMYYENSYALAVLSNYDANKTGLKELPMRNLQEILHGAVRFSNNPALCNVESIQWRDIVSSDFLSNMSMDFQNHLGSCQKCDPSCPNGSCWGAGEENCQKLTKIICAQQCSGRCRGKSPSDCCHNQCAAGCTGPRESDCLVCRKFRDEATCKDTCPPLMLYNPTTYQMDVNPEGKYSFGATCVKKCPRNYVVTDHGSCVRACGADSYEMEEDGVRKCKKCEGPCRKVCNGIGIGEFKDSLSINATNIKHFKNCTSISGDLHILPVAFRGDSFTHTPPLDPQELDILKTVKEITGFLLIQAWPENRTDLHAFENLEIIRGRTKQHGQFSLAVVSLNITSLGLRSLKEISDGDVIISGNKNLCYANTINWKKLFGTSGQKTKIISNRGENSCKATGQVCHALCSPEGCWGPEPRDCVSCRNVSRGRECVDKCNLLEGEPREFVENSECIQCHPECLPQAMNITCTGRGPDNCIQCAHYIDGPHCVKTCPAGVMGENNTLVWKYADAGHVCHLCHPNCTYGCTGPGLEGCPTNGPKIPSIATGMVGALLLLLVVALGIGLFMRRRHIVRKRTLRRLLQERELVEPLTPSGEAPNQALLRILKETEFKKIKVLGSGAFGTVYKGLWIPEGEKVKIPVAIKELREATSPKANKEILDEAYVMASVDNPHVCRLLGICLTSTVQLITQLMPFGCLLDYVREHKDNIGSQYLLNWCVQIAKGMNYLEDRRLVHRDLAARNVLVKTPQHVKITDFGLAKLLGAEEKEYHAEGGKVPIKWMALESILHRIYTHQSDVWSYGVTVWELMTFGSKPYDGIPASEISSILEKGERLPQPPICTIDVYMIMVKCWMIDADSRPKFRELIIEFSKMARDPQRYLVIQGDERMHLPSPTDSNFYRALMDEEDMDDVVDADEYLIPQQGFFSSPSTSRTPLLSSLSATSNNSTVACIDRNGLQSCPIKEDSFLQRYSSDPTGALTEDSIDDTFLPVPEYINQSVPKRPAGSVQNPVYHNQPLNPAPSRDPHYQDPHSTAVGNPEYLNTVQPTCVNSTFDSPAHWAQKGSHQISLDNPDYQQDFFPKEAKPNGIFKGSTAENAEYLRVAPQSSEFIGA
Nature of the experiment: EGFr tyrosine kinase assay. Type of experiment: biochemical. The conditions noted are these: Table 1; 10 μM ATP, 25° C., 10 minutes.

Experiment [5] concerns PDGF receptor autophosphorylation in rat aorta smooth muscle cells. The experiment can be described thus: PDGF Receptor Autophosphorylation Assay in rat aorta smooth muscle cells. Format: cell-based. The conditions noted are these: Table 2, PDGF-BB 30 ng/mL, 2 hours pre-incubation, read-out: IC50, inhibition of PDGF-stimulated receptor autophosphorylation.
Protocol: Rat aorta smooth muscle cells (RASMC) are isolated from the thoracic aorta of rats and explanted according to the method of Ross, J. Cell. […] Cells are grown in Dulbecco's modified Eagle's medium (DMEM, Gibco) containing 10% fetal calf serum (FBS, Hyclone, Logan, Utah), 1% glutamine (Gibco) and 1% penicillin/streptomycin (Gibco). Cells are identified as smooth muscle cells by their "hill and valley" growth pattern and by fluorescent staining with a monoclonal antibody specific for SMC μ-actin (Sigma). RASMC are used between passages 5 and 20 for all experiments. Test compounds are prepared in dimethylsulfoxide (DMSO) in order to achieve consistency in the vehicle and to ensure compound solubility. Appropriate DMSO controls are simultaneously evaluated with the test compounds.
Rat aortic smooth muscle cells are grown to confluencey in 100 mm dishes. Growth medium is removed and replaced with serum-free medium and cells are incubated at 37° C. for an additional 24 hours. Test compounds are then added directly to the medium and cells incubated for an additional 2 hours. After 2 hours PDGF-BB is added at a final concentration of 30 ng/mL for 5 minutes at 37° C. to stimulate autophosphorylation of PDGF receptors. Following growth factor treatment, the medium is removed, and cells are washed with cold phosphate-buffered saline and immediately lysed with 1 mL of lysis buffer (50 mM Hepes, pH 7.5, 150 mM NaCl, 10% glycerol, 1% Triton-X 100, 1 mM EDTA, 1 mM EGTA, 50 mM NaF, 1 mM sodium orthovanadate, 30 mM p-nitrophenyl phosphate, 10 mM sodium pyrophosphate, 1 mM phenylmethyl sulfonyl fluoride, 10 μg/mL aprotinin and 10 μg/mL leupeptin). Lysates are centrifuged at 10,000 ×g for 10 minutes. […] Following the incubation, protein-A-sepharose beads are added for 2 hours with continuous mixing, and immune complexes bound to the beads washed 4 times with 1 mL lysis wash buffer. Immune complexes are solubilized in 40 μL of Laemmli sample buffer and electrophoresed in 8-16% SDS polyacrylamide gels. Following electrophoresis, separated proteins are transferred to nitrocellulose and immunoblotted with a 1:1000 dilution of antiphosphotyrosine monoclonal antibody (UBI clone 4G10; #05-321). Following extensive washing with PBS-0.2% tween-20, the blots are incubated with horseradish peroxidase labeled goat antimouse IgG (1:5000; Bio-Rad Inc, Hercules, Calif.) and protein levels are detected by enhanced chemiluminescence (ECL) detection system according to the instructions of the supplier (Amersham Inc, Arlington Heights, Ill.). The density of the protein bands are determined using NIH Image software (v. 1.56) and IC50 values are generated from the densitometric data.
In experiment [6] the test system is SW-620 cells. The experiment can be described thus: Human Colon Carcinoma Growth Delay Assay. Type of experiment: cell-based. The conditions noted are these: 72 h, Table 3, SW-620, 3 days. The procedure: Human Colon Carcinoma Growth Delay Assay Human colon carcinoma cells are seeded into 96-well tissue culture plates in a final volume of 180 μL of 10% fetal bovine serum containing growth media and allowed to incubate overnight (37° C., 5% CO2, 95% air). Cells of the SW620 cell line are seeded at 1.0-1.5×10^4 cells per well. Cells of the HCT8 and HT29 cell lines are seeded at 2-4×10^3 cells per well. […] At the end of the incubation period, cells are fixed with 100 μL per well of 10% trichloroacetic acid after removing the drug/culture medium. The plates are washed 5 times with tap water and stained with 100 μL per well of 0.075% sulforhodamine B in 1% acetic acid for 10 minutes. The plates are rinsed 4 times and allowed to air dry. The stain in the wells are solubilized by the addition of 10 mM unbuffered Tris base and the absorbance read using a microtiter plate optical reader. Inhibition of cell growth is calculated from absorbance data of the treated cells compared to untreated control cells. Table 3 provides data for inhibition of growth in human adenocarcinoma cell lines.

The target in experiment [7] is T3, PDGF receptor tyrosine kinase (mouse PDGF-β) (Mus musculus, UniProt P05622).
T3 construct: PCR primers are designed to amplify a fragment of DNA that codes for the intracellular tyrosine kinase domain; made in house; host or cells: Sf9 insect cells (baculovirus), cell lysate
T3 sequence (P05622 599-961 limits assumed): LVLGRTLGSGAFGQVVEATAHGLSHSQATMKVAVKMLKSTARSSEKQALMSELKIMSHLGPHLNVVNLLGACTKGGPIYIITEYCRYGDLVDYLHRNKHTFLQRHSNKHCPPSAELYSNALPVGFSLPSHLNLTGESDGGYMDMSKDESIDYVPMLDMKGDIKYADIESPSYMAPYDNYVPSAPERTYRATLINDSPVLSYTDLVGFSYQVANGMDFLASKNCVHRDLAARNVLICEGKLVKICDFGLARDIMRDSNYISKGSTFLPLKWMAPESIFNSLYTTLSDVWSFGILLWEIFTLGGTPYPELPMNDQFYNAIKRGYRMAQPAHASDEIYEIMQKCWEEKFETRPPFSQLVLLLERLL
The experiment can be described thus: PDGFr tyrosine kinase assay (poly glutamate-tyrosine phosphorylation). Type of experiment: biochemical. The conditions noted are these: Table 1; 10 minutes at 25° C.

Experiment [8] deals with Protein kinase C (PKC). The experiment can be described thus: PKC assay. Type of experiment: biochemical. The conditions noted are these: Table 1; rat brain preparation.
Protocol: Protein kinase C (PKC) is obtained as a rat brain preparation from Promega.
The PKC assay is performed as previously described by Martiny-Baron, et al., J. Biol. Chem. 268: 9194-9197 (1993).
Experiment [9] has as its target T4, FGF receptor tyrosine kinase (human FGF-1 (flg)) (Homo sapiens, UniProt P11362).
T4 construct: PCR primers are designed to amplify a fragment of DNA that codes for the intracellular tyrosine kinase domain; made in house; host or cells: Sf9 insect cells (baculovirus), cell lysate
The experiment can be described thus: FGFr tyrosine kinase assay (poly glutamate-tyrosine phosphorylation). Type of experiment: biochemical. The conditions noted are these: Table 1; 10 minutes at 25° C.

T4 sequence (P11362 478-767 limits assumed): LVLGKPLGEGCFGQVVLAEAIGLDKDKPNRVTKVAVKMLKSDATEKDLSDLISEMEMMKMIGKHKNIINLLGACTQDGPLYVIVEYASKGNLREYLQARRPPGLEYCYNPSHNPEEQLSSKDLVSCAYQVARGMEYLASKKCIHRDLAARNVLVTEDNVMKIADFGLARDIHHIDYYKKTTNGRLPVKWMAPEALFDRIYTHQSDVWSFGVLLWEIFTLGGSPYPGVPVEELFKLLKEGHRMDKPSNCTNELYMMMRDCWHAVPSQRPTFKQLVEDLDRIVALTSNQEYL
T1 sequence (P06213 1023-1298 limits assumed, species assumed): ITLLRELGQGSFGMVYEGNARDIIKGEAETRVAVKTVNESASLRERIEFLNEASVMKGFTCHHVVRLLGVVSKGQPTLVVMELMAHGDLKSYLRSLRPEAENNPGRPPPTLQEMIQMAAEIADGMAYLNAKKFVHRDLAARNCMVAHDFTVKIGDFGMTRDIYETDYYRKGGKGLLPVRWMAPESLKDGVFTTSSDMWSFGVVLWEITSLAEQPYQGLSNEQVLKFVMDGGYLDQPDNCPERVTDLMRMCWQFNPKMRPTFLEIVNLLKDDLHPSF

By IC50 is commonly meant the concentration needed to halve the response being measured. On to `COc1ccc2c(c1)ncn2-c1ccccc1` [Example 13, 5-Methoxy-1-phenylbenzimidazole Hydrochloride], for which the IC50 in experiment [1] is greater than 5 µM; in experiment [2] it was 5 µM; in experiment [3], greater than 50 µM; in experiment [4], less than 50 µM; in experiment [5] it was 2 µM; in experiment [6], greater than 25 µM. In addition, the values for the half-inhibitory concentration (IC50) in experiment [7], in experiment [8] and in experiment [9] were 0.4 µM, greater than 50 µM and 22 µM, respectively.
